Measured values taken from ChEMBL document CHEMBL2413072, “Synthesis and in vitro anticancer studies of novel C-2 arylidene congeners of lantadenes” (2013).

Key:
Assay type in all cases: functional
MDA-MB-231 [1] = experiment: Growth inhibition of human MDA-MB-231 cells assessed as cell growth at 10^-6 M by sulforhodamine B assay; settings: read-out: Activity
SK-OV-3 = experiment: Growth inhibition of human SKOV3 cells by sulforhodamine B assay
M14 = experiment: Growth inhibition of human M14 cells assessed as cell growth at 10^-7 M by sulforhodamine B assay; settings: read-out: Activity
HCT-15 = experiment: Growth inhibition of human HCT15 cells by sulforhodamine B assay
RPMI-8226 = experiment: Growth inhibition of human RPMI8226 cells assessed as cell growth at 10^-7 M by sulforhodamine B assay; settings: read-out: Activity
SW-620 = experiment: Growth inhibition of human SW620 cells by sulforhodamine B assay
MDA-MB-231 [2] = experiment: Growth inhibition of human MDA-MB-231 cells assessed as cell growth at 10^-8 M by sulforhodamine B assay; settings: read-out: Activity
T47D [3] = experiment: Growth inhibition of human T47D cells by sulforhodamine B assay
UACC-257 = experiment: Growth inhibition of human UACC257 cells assessed as cell growth at 10^-4 M by sulforhodamine B assay; settings: read-out: Activity
SK-MEL-5 = experiment: Growth inhibition of human SK-MEL-5 cells assessed as cell growth at 10^-7 M by sulforhodamine B assay; settings: read-out: Activity
PC-3 = experiment: Growth inhibition of human PC3 cells assessed as cell growth at 10^-6 M by sulforhodamine B assay; settings: read-out: Activity
COLO 205 [4] = experiment: Growth inhibition of human COLO205 cells assessed as cell growth at 10^-6 M by sulforhodamine B assay; settings: read-out: Activity
HL-60(TB) [5] = experiment: Growth inhibition of human HL-60(TB) cells assessed as cell growth at 10^-4 M by sulforhodamine B assay; settings: read-out: Activity
HOP-62 = experiment: Growth inhibition of human HOP62 cells assessed as cell growth at 10^-8 M by sulforhodamine B assay; settings: read-out: Activity
COLO 205 [6] = experiment: Growth inhibition of human COLO205 cells assessed as cell growth at 10^-4 M by sulforhodamine B assay; settings: read-out: Activity
MCF7 = experiment: Growth inhibition of human MCF7 cells by sulforhodamine B assay
MDA-MB-468 = experiment: Growth inhibition of human MDA-MB-468 cells by sulforhodamine B assay
OVCAR-4 = experiment: Growth inhibition of human OVCAR4 cells assessed as cell growth at 10^-6 M by sulforhodamine B assay; settings: read-out: Activity
SF-268 = experiment: Growth inhibition of human SF268 cells assessed as cell growth at 10^-8 M by sulforhodamine B assay; settings: read-out: Activity
HT-29 [7] = experiment: Growth inhibition of human HT-29 cells assessed as cell growth at 10^-8 M by sulforhodamine B assay; settings: read-out: Activity
NCI-H322M = experiment: Growth inhibition of human NCI-H322M cells assessed as cell growth at 10^-6 M by sulforhodamine B assay; settings: read-out: Activity
CAKI-1 = experiment: Growth inhibition of human CAKI-1 cells assessed as cell growth at 10^-6 M by sulforhodamine B assay; settings: read-out: Activity
BT-549 = experiment: Growth inhibition of human BT549 cells assessed as cell growth at 10^-4 M by sulforhodamine B assay; settings: read-out: Activity
MDA-MB-435 [8] = experiment: Growth inhibition of human MDA-MB-435 cells assessed as cell growth at 10^-7 M by sulforhodamine B assay; settings: read-out: Activity
HL-60(TB) [9] = experiment: Growth inhibition of human HL-60(TB) cells by sulforhodamine B assay
A549 = experiment: Growth inhibition of human A549/ATCC cells by sulforhodamine B assay
786-0 [10] = experiment: Growth inhibition of human 786-0 cells assessed as cell growth at 10^-4 M by sulforhodamine B assay; settings: read-out: Activity
786-0 [11] = experiment: Growth inhibition of human 786-0 cells assessed as cell growth at 10^-7 M by sulforhodamine B assay; settings: read-out: Activity
NCI-H522 = experiment: Growth inhibition of human NCI-H522 cells assessed as cell growth at 10^-6 M by sulforhodamine B assay; settings: read-out: Activity
NCI-H226 = experiment: Growth inhibition of human NCI-H226 cells assessed as cell growth at 10^-8 M by sulforhodamine B assay; settings: read-out: Activity
HT-29 [12] = experiment: Growth inhibition of human HT-29 cells by sulforhodamine B assay
SNB-19 = experiment: Growth inhibition of human SNB19 cells assessed as cell growth at 10^-6 M by sulforhodamine B assay; settings: read-out: Activity
MDA-MB-435 [13] = experiment: Growth inhibition of human MDA-MB-435 cells by sulforhodamine B assay
T47D [14] = experiment: Growth inhibition of human T47D cells assessed as cell growth at 10^-6 M by sulforhodamine B assay; settings: read-out: Activity
OVCAR-3 = experiment: Growth inhibition of human OVCAR3 cells assessed as cell growth at 10^-8 M by sulforhodamine B assay; settings: read-out: Activity
[15] = Growth inhibition of human HCC2998 cells assessed as cell growth at 10^-6 M by sulforhodamine B assay; settings: HCC 2998, read-out: Activity
MOLT-4 = experiment: Growth inhibition of human MOLT4 cells assessed as cell growth at 10^-4 M by sulforhodamine B assay; settings: read-out: Activity
U-251 = experiment: Growth inhibition of human U251 cells assessed as cell growth at 10^-4 M by sulforhodamine B assay; settings: read-out: Activity
[16] = read-out: LC50 (the source's name)
[17] = read-out: pLC50 (the source's name) (converted)

In the case of `C/C=C(/C)C(=O)O[C@@H]1CC(C)(C)C[C@H]2C3=CC[C@@H]4[C@@]5(C)CCC(=O)C(C)(C)[C@@H]5CC[C@@]4(C)[C@]3(C)CC[C@@]12C(=O)O` [LANTADENE A], the growth at 1 µM (MDA-MB-231 [1]) is reported as 92%, the GI50 (SK-OV-3; read-out: GI50) is reported as 18 µM and the CC50 (SK-OV-3; [16]) is reported as > 100 µM. For the same compound, the TGI (SK-OV-3; read-out: TGI) was > 100 µM, the GI50 (SK-OV-3; read-out: pGI50 (converted)) was 18.2 µM and the CC50 (SK-OV-3; [17]) was > 100 µM. For the same compound, the TGI (SK-OV-3; read-out: pTGI (converted)) was > 100 µM, the growth at 0.1 µM (M14) was 91% and the GI50 (HCT-15; read-out: GI50) was 3.17 µM. The LC50 (50% lethal concentration) (HCT-15; read-out: LC50) was > 100 µM, the TGI (HCT-15; read-out: TGI) was > 100 µM and the GI50 (HCT-15; read-out: pGI50 (converted)) was 3.16 µM. The LC50 (50% lethal concentration) (HCT-15; read-out: pLC50 (converted)) was > 100 µM, the TGI (HCT-15; read-out: pTGI (converted)) was > 100 µM and the growth at 0.1 µM (RPMI-8226) was 91%. For the same compound, the GI50 (SW-620; read-out: GI50) was 4.48 µM, the CC50 (SW-620; [16]) was > 100 µM and the TGI (SW-620; read-out: TGI) was > 100 µM. The GI50 (SW-620; read-out: pGI50 (converted)) was 4.47 µM, the CC50 (SW-620; [17]) was > 100 µM and the TGI (SW-620; read-out: pTGI (converted)) was > 100 µM. For the same compound, the growth at 0.01 µM (MDA-MB-231 [2]) was 99%, the GI50 (T47D [3]; read-out: GI50) was 6.15 µM and the CC50 (T47D [3]; [16]) was > 100 µM. The TGI (T47D [3]; read-out: TGI) was > 100 µM, the GI50 (T47D [3]; read-out: pGI50 (converted)) was 6.17 µM and the CC50 (T47D [3]; [17]) was > 100 µM. For the same compound, the TGI (T47D [3]; read-out: pTGI (converted)) was > 100 µM, the growth at 100 µM (UACC-257) was 21% and the growth at 0.1 µM (SK-MEL-5) was 83%. It also gave a growth at 1 µM (PC-3) of 68%, a growth at 1 µM (COLO 205 [4]) of 101% and a growth at 100 µM (HL-60(TB) [5]) of -38%. For the same compound, the growth at 0.01 µM (HOP-62) was 92%, the growth at 100 µM (COLO 205 [6]) was -51% and the GI50 (MCF7; read-out: GI50) was 3.6 µM. The CC50 (MCF7; [16]) was > 100 µM, the TGI (MCF7; read-out: TGI) was > 100 µM and the GI50 (MCF7; read-out: pGI50 (converted)) was 3.63 µM. The CC50 (MCF7; [17]) was > 100 µM, the TGI (MCF7; read-out: pTGI (converted)) was > 100 µM and the GI50 (MDA-MB-468; read-out: GI50) was 2.58 µM. The CC50 (MDA-MB-468; [16]) was > 100 µM, the TGI (MDA-MB-468; read-out: TGI) was > 100 µM and the GI50 (MDA-MB-468; read-out: pGI50 (converted)) was 2.57 µM. For the same compound, the CC50 (MDA-MB-468; [17]) was > 100 µM, the TGI (MDA-MB-468; read-out: pTGI (converted)) was > 100 µM and the growth at 1 µM (OVCAR-4) was 86%. For the same compound, the growth at 0.01 µM (SF-268) was 100%, the growth at 0.01 µM (HT-29 [7]) was 99% and the growth at 1 µM (NCI-H322M) was 90%. The growth at 1 µM (CAKI-1) was 88%, the growth at 100 µM (BT-549) was 18% and the growth at 0.1 µM (MDA-MB-435 [8]) was 95%. The GI50 (HL-60(TB) [9]; read-out: GI50) was 1.87 µM, the CC50 (HL-60(TB) [9]; [16]) was > 100 µM and the TGI (HL-60(TB) [9]; read-out: TGI) was 5.26 µM. For the same compound, the GI50 (HL-60(TB) [9]; read-out: pGI50 (converted)) was 1.86 µM, the CC50 (HL-60(TB) [9]; [17]) was > 100 µM and the TGI (HL-60(TB) [9]; read-out: pTGI (converted)) was 5.25 µM. The GI50 (A549; read-out: GI50) was 2.84 µM, the CC50 (A549; [16]) was > 100 µM and the TGI (A549; read-out: TGI) was > 100 µM. The GI50 (A549; read-out: pGI50 (converted)) was 2.82 µM, the CC50 (A549; [17]) was > 100 µM and the TGI (A549; read-out: pTGI (converted)) was > 100 µM. For the same compound, the growth at 100 µM (786-0 [10]) was 4%, the growth at 0.1 µM (786-0 [11]) was 94% and the growth at 1 µM (NCI-H522) was 94%. For the same compound, the growth at 0.01 µM (NCI-H226) was 85%, the GI50 (HT-29 [12]; read-out: GI50) was 4.32 µM and the LC50 (50% cell kill) (HT-29 [12]; read-out: LC50) was > 100 µM. The TGI (HT-29 [12]; read-out: TGI) was > 100 µM, the GI50 (HT-29 [12]; read-out: pGI50 (converted)) was 4.37 µM and the LC50 (50% cell kill) (HT-29 [12]; read-out: pLC50 (converted)) was > 100 µM. The TGI (HT-29 [12]; read-out: pTGI (converted)) was > 100 µM, the growth at 1 µM (SNB-19) was 91% and the GI50 (MDA-MB-435 [13]; read-out: GI50) was 5.24 µM. The CC50 (MDA-MB-435 [13]; [16]) was > 100 µM, the TGI (MDA-MB-435 [13]; read-out: TGI) was > 100 µM and the GI50 (MDA-MB-435 [13]; read-out: pGI50 (converted)) was 5.25 µM. For the same compound, the CC50 (MDA-MB-435 [13]; [17]) was > 100 µM, the TGI (MDA-MB-435 [13]; read-out: pTGI (converted)) was > 100 µM and the growth at 1 µM (T47D [14]) was 93%. It also gave a growth at 0.01 µM (OVCAR-3) of 109%, a growth at 1 µM [15] of 98% and a growth at 100 µM (MOLT-4) of 2%. For the same compound, the growth at 100 µM (U-251) was 6%.
